Assays:
Assay type in all cases: in vivo, BALB/c mice
IL-13 = test: ELISA analysis in lung tissue, OVA-induced asthma; details: palmitic acid 5, 25, 50 mg/kg oral, particularly the 50 mg/kg group, FIG. 24
Description: (§1) In test groups, the animals determined to be healthy during the acclimation period were ranked by measuring the weight, and were randomly grouped so that the average weight of each group was uniform. The animals were divided into a total of 9 groups: a control group; a control group with OVA-induced asthma; a positive control group; groups administered with each of 50 mg/kg, 125 mg/kg and 250 mg/kg of oleic acid; and groups administered with each of 5 mg/kg, 25 mg/kg and 50 mg/kg of palmitic acid. The animals were sensitized via intraperitoneal injection of OVA once a week for 2 weeks after the acclimation period. During 5 days of week 3, dexamethasone (DEX) and the test substances oleic acid and palmitic acid were orally administered in the morning and 5% OVA solution was inhaled in the afternoon. The test substance was orally administered in an amount of 28 μL per weight (g) of the experimental animal, and OVA for sensitization was administered in a constant amount regardless of the weight. After 5 days of administration, autopsy was performed the next day. To analyze the levels of IFN-γ, IL-12p40, IL-4, IL-5, IL-6, and TNF-α in lung tissue, OptEIA mouse ELISAs were purchased from BD Biosciences. The IL-13 levels were assessed using the AbFrontier Cymax mouse FT ISA kit (AbFrontier, Seoul, Korea). All assays were performed according to the manufacturers' guidelines. All lung samples were prepared by a lysis buffer made with a protease inhibitor cocktail and an RIPA buffer (Thermo Fisher Scientific). Aliquots of lung tissue from all groups were weighed and homogenized with lysis buffer. They were then centrifuged at 8,200 rpm for 15 minutes, and the supernatants were harvested and measured using a microplate reader (EZ Read 400, Biochrom, Cambourne, UK).

TNF-α = test: ELISA analysis in lung tissue, OVA-induced asthma; details: palmitic acid 5, 25, 50 mg/kg oral, particularly the 50 mg/kg group, FIG. 25
Description: as §1

IL-5 = test: ELISA analysis in lung tissue, OVA-induced asthma; details: palmitic acid 5, 25, 50 mg/kg oral, particularly the 5 mg/kg group, FIG. 23
Description: as §1

[1] = tested on: eosinophils, mucus and epithelial hyperplasia; test: H&E staining of lung tissue, OVA-induced asthma; details: 5 days, vs OVA-sensitized group
Description: In test groups, the animals determined to be healthy during the acclimation period were ranked by measuring the weight, and were randomly grouped so that the average weight of each group was uniform. The animals were divided into a total of 9 groups: a control group; a control group with OVA-induced asthma; a positive control group; groups administered with each of 50 mg/kg, 125 mg/kg and 250 mg/kg of oleic acid; and groups administered with each of 5 mg/kg, 25 mg/kg and 50 mg/kg of palmitic acid. The animals were sensitized via intraperitoneal injection of OVA once a week for 2 weeks after the acclimation period. During 5 days of week 3, dexamethasone (DEX) and the test substances oleic acid and palmitic acid were orally administered in the morning and 5% OVA solution was inhaled in the afternoon. The test substance was orally administered in an amount of 28 μL per weight (g) of the experimental animal, and OVA for sensitization was administered in a constant amount regardless of the weight. After 5 days of administration, autopsy was performed the next day. Storage of tissue: ½ of the autopsy tissue was frozen quickly in liquid nitrogen, stored in an ultralow-temperature freezer or liquid nitrogen container (about −75 ° C.), and used for PCR/Western blotting, and the remaining ½ was stored in 10% formalin solution and used for histopathology and immunohistochemistry (IHC). […]

IgE = test: Analysis of IgE in BALF (Mouse IgE ELISA), OVA-induced asthma; details: 5 days, vs OVA-sensitized group
Description: In test groups, the animals determined to be healthy during the acclimation period were ranked by measuring the weight, and were randomly grouped so that the average weight of each group was uniform. The animals were divided into a total of 9 groups: a control group; a control group with OVA-induced asthma; a positive control group; groups administered with each of 50 mg/kg, 125 mg/kg and 250 mg/kg of oleic acid; and groups administered with each of 5 mg/kg, 25 mg/kg and 50 mg/kg of palmitic acid. The animals were sensitized via intraperitoneal injection of OVA once a week for 2 weeks after the acclimation period. During 5 days of week 3, dexamethasone (DEX) and the test substances oleic acid and palmitic acid were orally administered in the morning and 5% OVA solution was inhaled in the afternoon. The test substance was orally administered in an amount of 28 μL per weight (g) of the experimental animal, and OVA for sensitization was administered in a constant amount regardless of the weight. After 5 days of administration, autopsy was performed the next day. Immunoglobulin E (IgE) is a type of protein called antibody that plays an important role in allergic reactions. When IgE is exposed to a certain substance, the immune system begins to produce IgE in order to protect the body. […] 50 μL of a stop solution was added to each well, and the absorbance at 450 nm was measured.

| Structure (SMILES) | expression level of IL-13 (IL-13) | expression level of TNF-α (TNF-α) | expression level of IL-5 (IL-5) | eosinophils, mucus and epithelial hyperplasia (H&E staining) ([1]; palmitic acid 5, 25, 50 mg/kg oral, FIG. 16) | quantity of IgE (IgE; palmitic acid 5, 25, 50 mg/kg oral, FIG. 14) | eosinophils, mucus and epithelial hyperplasia (H&E staining) ([1]; oleic acid 50, 125, 250 mg/kg oral, FIG. 15) | quantity of IgE (IgE; oleic acid 50, 125, 250 mg/kg oral, FIG. 13) |
| --- | --- | --- | --- | --- | --- | --- | --- |
| CCCCCCCCCCCCCCCC(=O)O [palmitic acid] | decreased | decreased | decreased | dose-dependently decreased | dose-dependently decreased | – | – |
| CCCCCCCC/C=C\CCCCCCCC(=O)O [oleic acid] | – | – | – | – | – | dose-dependently decreased | dose-dependently decreased |
